The text below walks through data of patent US20250101041A1, “POSITIVE ALLOSTERIC MODULATORS OF THE MUSCARINIC ACETYLCHOLINE RECEPTOR M4” (Vanderbilt University, priority 2022, published 2025).

The structures appear in SMILES notation.

This assay has as its target T1, human mAChR M4 (Homo sapiens, UniProt P08173).
T1 construct: expressed in transfected cells; host or cells: CHO-K1 (American Type Culture Collection), stably expressing hM4 and Gqi5
T1 sequence (P08173 1-479): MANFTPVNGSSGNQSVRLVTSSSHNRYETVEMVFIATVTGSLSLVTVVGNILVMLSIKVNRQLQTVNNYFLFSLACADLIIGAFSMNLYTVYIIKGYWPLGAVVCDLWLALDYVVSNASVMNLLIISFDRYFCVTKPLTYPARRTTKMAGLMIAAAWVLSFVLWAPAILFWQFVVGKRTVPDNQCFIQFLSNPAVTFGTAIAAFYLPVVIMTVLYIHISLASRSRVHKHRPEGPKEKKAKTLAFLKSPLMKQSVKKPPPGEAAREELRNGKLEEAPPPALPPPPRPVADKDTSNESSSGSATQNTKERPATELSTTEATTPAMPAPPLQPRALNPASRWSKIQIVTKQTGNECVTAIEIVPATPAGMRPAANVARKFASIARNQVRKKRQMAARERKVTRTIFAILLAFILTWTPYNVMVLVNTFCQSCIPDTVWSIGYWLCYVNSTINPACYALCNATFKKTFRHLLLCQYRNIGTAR
The experiment in a line: mAChR M4 cell-based functional assay: calcium mobilization (Fluo-4, FDSS), potentiation of EC20 acetylcholine response in hM4-Gqi5 CHO-K1 cells. The conditions noted are these: human M4; for Emax at 30 µM: CHO-K1, % ACh maximum at 30 μM; for EC50: potentiation of EC20 acetylcholine response, calcium mobilization. In a few lines:
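Readout is the fluorescence-ratio rise at 1 Hz on FDSS, with PAM activity taken as concentration-dependent enhancement of the EC20 acetylcholine response, fitted four-parameter for EC50/Emax. hM4-Gqi5 CHO-K1 cells carried Fluo-4 AM dye; test compounds (11 points, 1:3) preceded EC20 acetylcholine additions at 144 s and 230 s.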
In general terms: Calcium assays in cells follow changes in intracellular calcium, usually with a dye or a luminescent sensor.

One may read the Emax as the maximal effect, on the per cent scale that the assay sets. Usually EC50 stands for the concentration that produces a half-maximal response. Turning to `COc1ccncc1-c1cnc2c(c1)CN(c1nn3c(=O)ccnc3c(C)c1C)CC2` [Compound 1-140, 7-(3-(4-methoxypyridin-3-yl)-7,8-dihydro-1,6-naphthyridin-6(5H)-yl)-8,9-dimethyl-4H-pyrimido[1,2-b]pyridazin-4-one], the maximum response (Emax) at 30 µM was found to be 89% and the EC50 is 360 nM.
The matching figures for `Cc1c(N2CCc3ncc(-c4ccnnc4)cc3C2)nn2c(=O)ccnc2c1C` [Compound 1-141, 8,9-dimethyl-7-(3-(pyridazin-4-yl)-7,8-dihydro-1,6-naphthyridin-6(5H)-yl)-4H-pyrimido[1,2-b]pyridazin-4-one]: 96% and 410 nM.
With `Cc1c(N2CCc3ncc(-c4cnccc4C(F)(F)F)cc3C2)nn2c(=O)ccnc2c1C` [Compound 1-142, 8,9-dimethyl-7-(3-(4-(trifluoromethyl)pyridin-3-yl)-7,8-dihydro-naphthyridin-6(5H)-yl)-4H-pyrimido[1,2-b]pyridazin-4-one], the maximum response (Emax) at 30 µM is 53% and the EC50 was found to be 371 nM.
The corresponding values for `Cc1ccc(-c2cnc3c(c2)CN(c2nn4c(=O)ccnc4c(C)c2C)CC3)cc1F` [Compound 1-143, 7-(3-(3-fluoro-4-methylphenyl)-7,8-dihydro-1,6-naphthyridin-6(5H)-yl)-8,9-dimethyl-4H-pyrimido[1,2-b]pyridazin-4-one] are 102% and 416 nM.
The matching figures for `Cc1c(N2CCc3ncc(-c4cncc(Cl)c4)cc3C2)nn2c(=O)ccnc2c1C` [Compound 1-144, 7-(3-(5-chloropyridin-3-yl)-7,8-dihydro-1,6-naphthyridin-6(5H)-yl)-8,9-dimethyl-4H-pyrimido[1,2-b]pyridazin-4-one]: 82% and 246 nM.
The corresponding values for `Cc1c(N2CCc3ncc(-c4cnccc4Cl)cc3C2)nn2c(=O)ccnc2c1C` [Compound 1-145, 7-(3-(4-chloropyridin-3-yl)-7,8-dihydro-1,6-naphthyridin-6(5H)-yl)-8,9-dimethyl-4H-pyrimido[1,2-b]pyridazin-4-one] are 88% and 122 nM.
In the case of `Cc1c(N2CCc3ncc(-c4cnc(Cl)c(F)c4)cc3C2)nn2c(=O)ccnc2c1C` [Compound 1-146, 7-(3-(6-chloro-5-fluoropyridin-3-yl)-7,8-dihydro-1,6-naphthyridin-6(5H)-yl)-8,9-dimethyl-4H-pyrimido[1,2-b]pyridazin-4-one], the Emax at 30 µM was 86% and the half-maximal effective concentration (EC50) is 399 nM.
The corresponding values for `Cc1cncc(-c2cnc3c(c2)CN(c2nn4c(=O)ccnc4c(C)c2C)CC3)c1` [Compound 1-147, 8,9-dimethyl-7-(3-(5-methylpyridin-3-yl)-7,8-dihydro-1,6-naphthyridin-6(5H)-yl)-4H-pyrimido[1,2-b]pyridazin-4-one] are 80% and 305 nM.
Regarding `Cc1c(N2CCc3ncc(-c4cccnc4)cc3C2)nn2c(=O)ccnc2c1C` [Compound 1-148, 8,9-dimethyl-7-(3-(pyridin-3-yl)-7,8-dihydro-1,6-naphthyridin-6(5H)-yl)-4H-pyrimido[1,2-b]pyridazin-4-one], the Emax at 30 µM amounted to 89% and the half-maximal effective concentration (EC50) was 344 nM.
Turning to `Cc1cc(F)ncc1-c1cnc2c(c1)CN(c1nn3c(=O)ccnc3c(C)c1C)CC2` [Compound 1-149, 7-(3-(6-Fluoro-4-methylpyridin-3-yl)-7,8-dihydro-1,6-naphthyridin-6(5H)-yl)-8,9-dimethyl-4H-pyrimido[1,2-b]pyridazin-4-one], the Emax at 30 µM was 89% and the EC50 stood at 68 nM.
The corresponding values for `Cc1c(N2CCc3ncc(-c4cnn(C5CCCCO5)c4)cc3C2)nn2c(=O)ccnc2c1C` (stereo not drawn) [Compound 1-150, 8,9-dimethyl-7-(3-(1-(tetrahydro-2H-pyran-2-yl)-1H-pyrazol-4-yl)-7,8-dihydro-1,6-naphthyridin-6(5H)-yl)-4H-pyrimido[1,2-b]pyridazin-4-one] are 74% and 511 nM.
The corresponding values for `Cc1c(N2CCc3ncc(-c4ccnn4C4COC4)cc3C2)nn2c(=O)ccnc2c1C` [Compound 1-151, 8,9-dimethyl-7-(3-(1-(oxetan-3-yl)-1H-pyrazol-5-yl)-7,8-dihydro-1,6-naphthyridin-6(5H)-yl)-4H-pyrimido[1,2-b]pyridazin-4-one] are 75% and 3210 nM.
With `Cc1c(N2CCc3ncc(-c4cnn(C5CC5)c4)cc3C2)nn2c(=O)ccnc2c1C` [Compound 1-152, 7-(3-(1-cyclopropyl-1H-pyrazol-4-yl)-7,8-dihydro-1,6-naphthyridin-6(5H)-yl)-8,9-dimethyl-4H-pyrimido[1,2-b]pyridazin-4-one], the maximum response (Emax) at 30 µM was found to be 80% and the EC50 came to 133 nM.
Turning to `Cc1c(N2CCc3ncc(-c4cnn(-c5ccccn5)c4)cc3C2)nn2c(=O)ccnc2c1C` [Compound 1-153, 8,9-dimethyl-7-(3-(1-(pyridin-2-yl)-1H-pyrazol-4-yl)-7,8-dihydro-1,6-naphthyridin-6(5H)-yl)-4H-pyrimido[1,2-b]pyridazin-4-one], the Emax at 30 µM came to 67% and the EC50 stood at 584 nM.
On to `Cc1c(N2CCc3ncc(-c4cncc(C(F)(F)F)c4)cc3C2)nn2c(=O)cc(C(F)F)nc2c1C` [Compound 1-154, 2-(difluoromethyl)-8,9-dimethyl-7-(3-(5-(trifluoromethyl)pyridin-3-yl)-7,8-dihydro-1,6-naphthyridin-6(5H)-yl)-4H-pyrimido[1,2-b]pyridazin-4-one], for which the maximal response (Emax) at 30 µM was determined as 80% and the EC50 stood at 401 nM.
The corresponding values for `Cc1c(N2CCc3ncc(-c4cccnc4)cc3C2)nn2c(=O)cc(C(F)F)nc2c1C` [Compound 1-155, 2-(difluoromethyl)-8,9-dimethyl-7-(3-(pyridin-3-yl)-7,8-dihydro-1,6-naphthyridin-6(5H)-yl)-4H-pyrimido[1,2-b]pyridazin-4-one] are 91% and 62 nM.
`Cc1c(N2CCc3ncc(-c4cncc(F)c4)cc3C2)nn2c(=O)cc(C(F)F)nc2c1C` [Compound 1-156, 2-(difluoromethyl)-7-(3-(5-fluoropyridin-3-yl)-7,8-dihydro-1,6-naphthyridin-6(5H)-yl)-8,9-dimethyl-4H-pyrimido[1,2-b]pyridazin-4-one]: the Emax at 30 µM was 95% and the half-maximal effective concentration (EC50) was 204 nM.
`Cc1c(N2CCc3ncc(-c4cncc(C#N)c4)cc3C2)nn2c(=O)cc(C(F)F)nc2c1C` [Compound 1-157, 5-(6-(2-(difluoromethyl)-8,9-dimethyl-4-oxo-4H-pyrimido[1,2-b]pyridazin-7-yl)-5,6,7,8-tetrahydro-1,6-naphthyridin-3-yl)nicotinonitrile]: the Emax at 30 µM worked out at 100% and the concentration giving a half-maximal response (EC50) came out at 426 nM.
Regarding `Cc1c(N2CCc3ncc(-c4ccnnc4)cc3C2)nn2c(=O)cc(C(F)F)nc2c1C` [Compound 1-158, 2-(difluoromethyl)-8,9-dimethyl-7-(3-(pyridazin-4-yl)-7,8-dihydro-1,6-naphthyridin-6(5H)-yl)-4H-pyrimido[1,2-b]pyridazin-4-one], the Emax at 30 µM amounted to 94% and the concentration giving a half-maximal response (EC50) is 251 nM.
Consider `Cc1c(N2CCc3ncc(-c4cncnc4)cc3C2)nn2c(=O)cc(C(F)F)nc2c1C` [Compound 1-159, 2-(difluoromethyl)-8,9-dimethyl-7-(3-(pyrimidin-5-yl)-7,8-dihydro-1,6-naphthyridin-6(5H)-yl)-4H-pyrimido[1,2-b]pyridazin-4-one], for which the maximal effect (Emax) at 30 µM came to 86% and the EC50 amounted to 3060 nM.
The matching figures for `Cc1c(N2CCc3ncc(-c4cncc(Cl)c4)cc3C2)nn2c(=O)cc(C(F)F)nc2c1C` [Compound 1-160, 7-(3-(5-chloropyridin-3-yl)-7,8-dihydro-1,6-naphthyridin-6(5H)-yl)-2-(difluoromethyl)-8,9-dimethyl-4H-pyrimido[1,2-b]pyridazin-4-one]: 82% and 547 nM.
Regarding `Cc1ccncc1-c1cnc2c(c1)CN(c1nn3c(=O)cc(C(F)F)nc3c(C)c1C)CC2` [Compound 1-161, 2-(difluoromethyl)-8,9-dimethyl-7-(3-(4-methylpyridin-3-yl)-7,8-dihydro-1,6-naphthyridin-6(5H)-yl)-4H-pyrimido[1,2-b]pyridazin-4-one], the Emax at 30 µM was 76% and the EC50 turned out to be 92 nM.
The matching figures for `Cc1cc2nccn2cc1-c1cnc2c(c1)CN(c1nn3c(=O)cc(C(F)F)nc3c(C)c1C)CC2` [Compound 1-162, 2-(difluoromethyl)-8,9-dimethyl-7-(3-(7-methylimidazo[1,2-a]pyridin-6-yl)-7,8-dihydro-1,6-naphthyridin-6(5H)-yl)-4H-pyrimido[1,2-b]pyridazin-4-one]: 71% and 520 nM.
The matching figures for `Cc1c(N2CCc3ncc(-c4cnn(-c5ccccn5)c4)cc3C2)nn2c(=O)cc(C(F)F)nc2c1C` [Compound 1-163, 2-(difluoromethyl)-8,9-dimethyl-7-(3-(1-(pyridin-2-yl)-1H-pyrazol-4-yl)-7,8-dihydro-1,6-naphthyridin-6(5H)-yl)-4H-pyrimido[1,2-b]pyridazin-4-one]: 71% and 1020 nM.
